Experimental data as given in US12077555B2, “STAT degraders and uses thereof” (Kymera Therapeutics, Inc., priority 2019, dated 2024).

Target: T1, STAT3 (Homo sapiens, UniProt P40763)
Experiment: Quantitation of STAT3 degradation in A549 cells by Western blot
Assay type: cell-based
Parameters: expressed in transfected cells; host or cells: A549
Settings: read-out: A549 DC50, 24 hours, tested up to 30 μM or 10 μM
Description: Degradation of total cellular STAT3 protein in A549 was quantitatively measured using SDS-PAGE and Western blot analysis. A549 cells (5×10^5 cells/well, 2 mL) were seeded into 6-well plates and were incubated in the incubator under 5% CO2 overnight to reach ˜80% confluency. The next day, the culture medium was changed with 1 ml fresh media. Then, 1 mL of media containing 2× compound solution was added into the well to make the final concentration of 30 μM, 10 μM, 3 μM, 1 μM, 0.3 μM and 0 μM (DMSO). The media was thoroughly mixed and incubated for 24 hours at 37° C. under 5% CO2. Then, the culture media was removed from the assay plates and the cells were washed with ice-cold PBS twice. To prepare cell lysates, 200 ul pre-chilled RIPA lysis buffer (Boston BioProducts BP-115D) with protease/phosphatase inhibitor (Roche 05892791001/Roche 04906837001) was added directly into the well to lyse the cells for 20 minutes on ice. The cell lysates were then transferred to centrifuge tubes. Insoluble part of lysates was removed by centrifuging the lysates at 13000 rpm for 20 minutes. The supernatant was then collected and mixed with 5× loading buffer (Beyotime Bio P0015) to make the final samples for SDS-PAGE analysis. The samples were heated at 100° C. for 10 minutes and cool to room temperature before centrifuging at 13000 rpm for 20 minutes. To analyze the samples by SDS-PAGE, 10 ul samples were loaded onto SDS-PAGE gel (Novex, WG1403BOX) and the SDS-PAGE gel was run for 20 minutes at 80 V, then at 120 V for 1.5 hours. The SDS-PAGE gel was then transferred to nitrocellulose membrane using the wet-transfer method at 250 mA for 1.5 hours. The membrane was then blocked with LI-COR blocking buffer (LI-COR, 927-50000) for 1 hour and was probed with primary antibody (mouse anti-STAT3 (124H6) (CST #91395) 1:2000 or mouse anti-beta-Actin (8H10D10) (CST #3700) 1:10000) at 4° C. overnight. The membrane was then washed three times with TBST buffer and probed with secondary antibody (anti-mouse IgG (LI-COR, 926-68070), 1:5000) for 1 hour at room temperature. The membrane was then scanned on a LI-COR Odyssey instrument and was quantified using Image Studio Version 5.2. Concentration at 50% degradation (DC50) was calculated by fitting dose dependent degradation data using a sigmoidal equation using GraphPad Prism Version 8.0.

T1 sequence (P40763 whole entry): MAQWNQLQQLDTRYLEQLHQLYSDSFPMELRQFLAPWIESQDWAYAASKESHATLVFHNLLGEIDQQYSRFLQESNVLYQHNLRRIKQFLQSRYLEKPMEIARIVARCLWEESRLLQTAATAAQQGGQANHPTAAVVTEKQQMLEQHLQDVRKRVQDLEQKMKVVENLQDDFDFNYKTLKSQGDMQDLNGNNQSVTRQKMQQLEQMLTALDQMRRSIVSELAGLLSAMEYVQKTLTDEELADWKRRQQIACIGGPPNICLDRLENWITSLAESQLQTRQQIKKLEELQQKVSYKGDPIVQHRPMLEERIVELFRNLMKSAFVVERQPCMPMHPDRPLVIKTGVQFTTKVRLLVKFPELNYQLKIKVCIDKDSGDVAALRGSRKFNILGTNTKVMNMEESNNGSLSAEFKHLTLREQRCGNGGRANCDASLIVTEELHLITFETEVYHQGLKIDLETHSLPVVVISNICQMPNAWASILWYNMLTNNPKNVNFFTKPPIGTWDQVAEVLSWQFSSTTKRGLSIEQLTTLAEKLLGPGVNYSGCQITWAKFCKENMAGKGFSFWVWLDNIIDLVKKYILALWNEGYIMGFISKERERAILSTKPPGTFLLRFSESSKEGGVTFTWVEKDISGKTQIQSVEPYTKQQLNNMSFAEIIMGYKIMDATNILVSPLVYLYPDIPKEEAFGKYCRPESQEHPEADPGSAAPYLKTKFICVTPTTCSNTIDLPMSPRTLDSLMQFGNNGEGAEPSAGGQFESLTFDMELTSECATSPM

SMILES	DC50 [nM]
C/C(=C\C(=O)N[C@H]1CCc2cccc3c2N(C1=O)[C@H](C(=O)N[C@@H](CCC(N)=O)[C@@H](C)OCc1ccc(CCCCC(=O)N[C@H](C(=O)N2C[C@@H](O)C[C@H]2C(=O)NCc2ccc(-c4scnc4C)cc2)C(C)(C)C)cc1)C3)c1ccc(C(F)(F)P(=O)(OCOC(=O)C(C)(C)C)OCOC(=O)C(C)(C)C)cc1 [Compound I-2]	> 30000
C/C(=C\C(=O)N[C@H]1CCc2cccc3c2N(C1=O)[C@H](C(=O)N[C@@H](CCC(N)=O)[C@@H](C)OCc1ccc(CCCCc2cccc4c2n(C)c(=O)n4C2CCC(=O)NC2=O)cc1)C3)c1ccc(C(F)(F)P(=O)(OCOC(=O)C(C)(C)C)OCOC(=O)C(C)(C)C)cc1 (stereo partly drawn) [Compound I-3]	> 30000
C/C(=C\C(=O)N[C@H]1CCc2cccc3c2N(C1=O)[C@H](C(=O)N[C@@H](CCC(N)=O)[C@@H](C)OCc1ccc(CC(=O)N[C@H](C(=O)N2C[C@H](O)C[C@H]2C(=O)NCc2ccc(-c4scnc4C)cc2)C(C)(C)C)cc1)C3)c1ccc(C(F)(F)P(=O)(OCOC(=O)C(C)(C)C)OCOC(=O)C(C)(C)C)cc1 [Compound I-4]	> 30000

Target: T1, STAT3
Experiment: STAT3 HiBiT degradation assay in transfected A549 cells
Assay type: cell-based
Parameters: expressed in transfected cells; host or cells: A549
Settings: A549, 24 h; read-out: STAT3 HiBiT A549 degradation 24 h: Average external-Abs DC50
Outline: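 Transfected A549 cells (~2000/well) plated 24 h, then treated 24 h at 37 °C, 5% CO2 with a 3-fold, 10-point compound dilution. HiBiT lytic luminescence read after 10 min at room temperature; remaining STAT3 normalized to negative and positive controls, four-parameter fit. DC50 binned A <0.01, B 0.01–0.1, C 0.1–1.0, D >1.0 µM.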

SMILES	DC50 [nM]
Cn1c(=O)n(C2CCC(=O)NC2=O)c2ccc(CCCCCCc3cc4c5c(c3)C[C@@H](C(=O)N[C@@H](CCC(N)=O)c3ccccn3)N5C(=O)[C@@H](NC(=O)c3cc5cc(C(=O)P(=O)(O)O)ccc5[nH]3)CC4)cc21 (stereo partly drawn) [Compound I-277, 2-[[(2S,11S)-2-[[(1S)-3-carbamoyl-1-(pyridin-2-yl)propyl]carbamoyl]-6-[6-[1-(2,6-dioxopiperidin-3-yl)-3-methyl-2-oxo-1,3-benzodiazol-5-yl]hexyl]-12-oxo-1-azatricyclo[6.4.1.0^[4,13]]trideca-4(13),5,7-trien-11-yl]carbamoyl]-1H-indole-5-carbonylphosphonic acid]	10 to 100
Cn1c(=O)n(C2CCC(=O)NC2=O)c2ccc([C@H]3CC[C@H](CCC(=O)N4CC[C@H]5CC[C@@H](C(=O)N[C@@H](CCC(N)=O)C(=O)NC(c6ccccc6)c6ccccc6)N5C(=O)[C@@H](NC(=O)c5cc6cc(C(=O)P(=O)(O)O)ccc6[nH]5)C4)CC3)cc21 (stereo partly drawn) [Compound I-278, 2-[[(5S,8S,10aR)-8-[[(1S)-3-carbamoyl-1-(diphenylmethylcarbamoyl)propyl]carbamoyl]-6-oxo-3-[3-[(1r,4r)-4-[1-(2,6-dioxopiperidin-3-yl)-3-methyl-2-oxo-1,3-benzodiazol-5-yl]cyclohexyl]propanoyl]-octahydropyrrolo[1,2-a][1,5]diazocin-5-yl]carbamoyl]-1H-indole-5-carbonylphosphonic acid]	100 to 1000
Cc1ncsc1-c1ccc([C@H](C)NC(=O)[C@@H]2C[C@@H](O)CN2C(=O)[C@@H](NC(=O)CCCCCc2cccc(OC[C@H](CCC(N)=O)NC(=O)[C@@H]3CCCN3C(=O)[C@H](CC(C)C)NC(=O)c3cc4cc(C(=O)P(=O)(O)O)ccc4[nH]3)c2F)C(C)(C)C)cc1 [Compound I-279]	< 10
Cc1ncsc1-c1ccc([C@H](C)NC(=O)[C@@H]2C[C@@H](O)CN2C(=O)[C@@H](NC(=O)CCCCc2cccc(NC(=O)[C@H](CCC(N)=O)NC(=O)[C@@H]3Cc4cccc5c4N3C(=O)C(CC(=O)c3cc4ccc(C(=O)P(=O)(O)O)cc4[nH]3)CC5)c2)C(C)(C)C)cc1 (stereo partly drawn) [Compound I-280]	10 to 100
Cc1ncsc1-c1ccc([C@H](C)NC(=O)[C@@H]2C[C@@H](O)CN2C(=O)[C@@H](NC(=O)OCCCCc2cccc(OC[C@H](CCC(N)=O)NC(=O)[C@@H]3Cc4cccc5c4N3C(=O)[C@@H](NC(=O)c3cc4cc(C(=O)P(=O)(O)O)ccc4[nH]3)CC5)c2F)C(C)(C)C)cc1 [Compound I-281]	< 10
Cc1ncsc1-c1ccc(C2(NC(=O)[C@@H]3C[C@@H](O)CN3C(=O)[C@@H](NC(=O)CCCc3cccc(OC[C@H](CCC(N)=O)NC(=O)[C@@H]4Cc5cccc6c5N4C(=O)[C@@H](NC(=O)c4cc5cc(C(=O)P(=O)(O)O)ccc5[nH]4)CC6)c3Cl)C(C)(C)C)CC2)cc1 [Compound I-283]	10 to 100
Cn1c(=O)n(C2CCC(=O)NC2=O)c2ccc(CCCCCCC(=O)N3CC[C@H]4CC[C@@H](C(=O)N[C@@H](CCC(N)=O)C(=O)NCc5ccc(S(C)(=O)=O)cc5)N4C(=O)[C@@H](NC(=O)c4cc5cc(C(=O)P(=O)(O)O)ccc5[nH]4)C3)cc21 (stereo partly drawn) [Compound I-288, 2-[[(5S,8S,10aR)-8-[[(1S)-3-carbamoyl-1-[[(4-methanesulfonylphenyl)methyl]carbamoyl]propyl]carbamoyl]-3-[7-[1-(2,6-dioxopiperidin-3-yl)-3-methyl-2-oxo-1,3-benzodiazol-5-yl]heptanoyl]-6-oxo-octahydropyrrolo[1,2-a][1,5]diazocin-5-yl]carbamoyl]-1H-indole-5-carbonylphosphonic acid]	10 to 100
CC(=O)N1CC[C@H]2CC[C@@H](C(=O)N[C@@H](CCC(=O)O)COc3cc(F)cc(CCCC(=O)N[C@H](C(=O)N4C[C@H](O)C[C@H]4C(=O)N[C@@H](C)c4ccc(-c5scnc5C)cc4)C(C)(C)C)c3Cl)N2C(=O)[C@@H](NC(=O)c2cc3cc(C(=O)P(=O)(O)O)ccc3[nH]2)C1 [Compound I-289]	< 10
CC(=O)N1CC[C@H]2CC[C@@H](C(=O)N[C@@H](CCC(=O)O)COc3cc(C)cc(CCCC(=O)N[C@H](C(=O)N4C[C@H](O)C[C@H]4C(=O)N[C@@H](C)c4ccc(-c5scnc5C)cc4)C(C)(C)C)c3F)N2C(=O)[C@@H](NC(=O)c2cc3cc(C(=O)P(=O)(O)O)ccc3[nH]2)C1 [Compound I-290]	< 10
Cn1c(=O)n(C2CCC(=O)NC2=O)c2ccc(CC[C@H]3CC[C@@H](C(=O)N4CC[C@H]5CC[C@@H](C(=O)N[C@@H](CCC(N)=O)C(=O)NCc6ccc(S(C)(=O)=O)cc6)N5C(=O)[C@@H](NC(=O)c5cc6cc(C(=O)P(=O)(O)O)ccc6[nH]5)C4)CC3)cc21 (stereo partly drawn) [Compound I-294, (2-(((5S,8S,10aR)-8-(((S)-5-amino-1-((4-(methylsulfonyl)benzyl)amino)-1,5-dioxopentan-2-yl)carbamoyl)-3-((1r,4R)-4-(2-(1-(2,6-dioxopiperidin-3-yl)-3-methyl-2-oxo-2,3-dihydro-1H-benzo[d]imidazol-5-yl)ethyl)cyclohexane-1-carbonyl)-6-oxodecahydropyrrolo[1,2-a][1,5]diazocin-5-yl)carbamoyl)-1H-indole-5-carbonyl)phosphonic acid]	< 10
CC(C)c1ccc(CNC(=O)[C@H](CCC(N)=O)NC(=O)[C@@H]2CC[C@@H]3CCN(C(=O)[C@H]4CC[C@@H](CCc5ccc6c(c5)n(C)c(=O)n6C5CCC(=O)NC5=O)CC4)C[C@H](NC(=O)c4cc5cc(C(=O)P(=O)(O)O)ccc5[nH]4)C(=O)N32)cc1 (stereo partly drawn) [Compound I-295, (2-(((5S,8S,10aR)-8-(((S)-5-amino-1-((4-isopropylbenzyl)amino)-1,5-dioxopentan-2-yl)carbamoyl)-3-((1r,4R)-4-(2-(1-(2,6-dioxopiperidin-3-yl)-3-methyl-2-oxo-2,3-dihydro-1H-benzo[d]imidazol-5-yl)ethyl)cyclohexane-1-carbonyl)-6-oxodecahydropyrrolo[1,2-a][1,5]diazocin-5-yl)carbamoyl)-1H-indole-5-carbonyl)phosphonic acid]	< 10

Same assay, conditions: read-out: STAT3 HiBiT A549 degradation 24 h: Average external-Abs DC50; A549, 24 h

SMILES	DC50 [nM]
Cc1ncsc1-c1ccc([C@H](C)NC(=O)[C@@H]2C[C@@H](O)CN2C(=O)[C@@H](NC(=O)CCCCc2cccc(OC[C@H](CCC(N)=O)NC(=O)[C@@H]3CCCN3C(=O)[C@H](CC(C)C)NC(=O)c3cc4cc(C(=O)P(=O)(O)O)ccc4[nH]3)c2F)C(C)(C)C)cc1 [Compound I-276, diammonium 2-[[(2S)-1-[(2S)-2-[[(2S)-4-carbamoyl-1-[2-fluoro-3-(4-[[(2S)-1-[(2S,4R)-4-hydroxy-2-[[(1S)-1-[4-(4-methyl-1,3-thiazol-5-yl)phenyl]ethyl]carbamoyl]pyrrolidin-1-yl]-3,3-dimethyl-1-oxobutan-2-yl]carbamoyl]butyl)phenoxy]butan-2-yl]carbamoyl]pyrrolidin-1-yl]-4-methyl-1-oxopentan-2-yl]carbamoyl]-1H-indole-5-carbonylphosphonate]	< 10
